From patent EP4549575A1 (priority 2023, dated 2025) come the findings set out here.

Entries after “also recorded” stand apart in the source; their conditions may differ. Square brackets hold non-standard residues; d marks the D form. Ends that are not written are not given here. Peptide text beside a SMILES is read from it. βAla = NCCC(=O)O

A short description of series [1]: Conformational studies based on circular dichroism. It counts as physicochemical. The protocol: Conformational studies based on circular dichroism were performed under different conditions, such as: • 10 mM phosphate buffer, pH 7 • MES buffer 10 mM, pH 6 • Buffer acetate 10 mM, pH 5 • Phosphate buffer 10 mM/TFE (1:1) • TFE (trifluoroethanol)
Conformational studies based on circular dichroism were performed under different conditions such as: • 10 mM phosphate buffer, pH7 • Phosphate buffer 10mM/TFE, pH7 (1:1) • TFE (trifluoroethanol)
Conformational studies based on circular dichroism were performed under different conditions, such as: • 10 mM phosphate buffer, pH7 • MES buffer 10 mM, pH6 • Buffer acetate 10 mM, pH5 • Phosphate buffer 10 mM/TFE, pH7 (1:1) • TFE (trifluoroethanol)
Conformational studies based on circular dichroism were performed under different conditions, such as: • 10 mM phosphate buffer, pH7 • 10mM phosphate buffer/TFE (1:1) • TFE (trifluoroethanol)

For series [2], the system named is P. infestans. It counts as cell-based. Conditions: for PPI: solid medium, linear vs cyclic peptides (Figure 8); for PPI (%) ± dev. std (Solid medium): peptide 200 µM, PAM agar, mycelium plug, 3-4 days, vs untreated control.
Series [3] has as its system pronase. The experiment in a line: Stability towards proteolysis (pronase, LC-MS). It counts as in vitro ADME, Streptomyces griseus. The settings on record: peptide 200 µM, protease 5 µg/mL, 37°C, pH 7.5; for stability against proteolysis: 0-2 h. The procedure: The evaluation of the stability of CP20 and Ac-LP20 towards proteolysis was tested at a peptide concentration of 200 µM using pronase (commercially available mixture of proteases isolated from the extracellular fluid of Streptomyces griseus, 2.5 µg/mg). Another peptide was added to this analysis, namely LP20 (without N-terminal acetylation), as it is easier to synthesize and to also assess the influence of N-terminal acetylation on the stability of LP20. Each peptide was tested in the presence of the protease (5 µg/mL) at 37°C in a buffer solution (50 mM Tris, 10 mM CaCl2, 150 mM NaCl, 0.05 % (w/v) Brij 35, pH 7.5) and its stability monitored by liquid chromatography coupled to mass spectrometry (LC-MS) at different time intervals (t=0 min, 10 min, 30 min, 1 h, 2 h). To stop enzyme activity, a small amount of the solution (60 µL) was transferred to an HPLC vial containing 6 µL of a 10% TFA solution at these different time points.

Series [4] in a line: Chemical-physical properties (isoelectric point, net charge, solubility in water). It counts as physicochemical. Conditions: for net charge: at pH 7.
Another series deals with Escherichia coli DH5α. The experiment in a line: Specificity: growth in liquid culture (OD620). It counts as cell-based. Conditions: 200 µM; LB medium; measured hourly up to 5 h. The protocol:
(§1) The specificity of antimicrobial molecules is a key aspect in their development, as good degrees of specificity result in the absence of toxicity to other organisms in the environment such as animals, plants, fungi, bacteria, yeasts, livestock and humans. Therefore, initial assays were carried out to assess the toxicity profiles of CP20 and CP32, similar to those reported in Colombo et al.. For this purpose, the two cyclic peptides were added at a concentration of 200 µM to liquid cultures of the following microorganism species: • (i) Agrobacterium tumefaciens GV3101, (ii) Escherichia coli DH5α and (iii) Saccharomyces cerevisiae. The culture media used were respectively Luria-Bertani (LB) for the bacterial cultures, while Yeast Extract Peptone Dextrose (YEPD) medium was used for S. cerevisiae. Growth was measured hourly (up to 5 h) using a spectrophotometer (OD620).

The next series has as its system Saccharomyces cerevisiae. The experiment in a line: Specificity: growth in liquid culture (OD620). It counts as cell-based. Conditions: 200 µM; YEPD medium; measured hourly up to 5 h. The protocol:
as §1

For series [5], the system named is P. infestans. It counts as in vivo. Conditions: tomato (Solanum lycopersicum, cv. Marmande) leaf discs; co-inoculation with sporangia; 5-7 days; reference concentration 200 µM.
Series [6] concerns P. infestans. Conditions: for PGI (%) ± dev. std (Liquid medium): peptide 200 µM, Pea Broth, sporangia, OD620, 72 h, vs untreated control.
The subject of a further series is P. ultimum. It counts as cell-based, Pythium ultimum var. ultimum Trow. The settings on record: PDA agar, mycelium; mean ± standard deviation vs untreated control; concentration not given.
For series [7], the system named is pronase. The series can be described thus: pronase (commercially available mixture of proteases isolated from the extracellular fluid of Streptomyces griseus, 2.5 µg/mg) in buffer solution (50 mM Tris, 10 mM CaCl2, 150 mM NaCl, 0.05 % (w/v) Br). The settings on record: 37°C, up to 2 h.
Where [8] appears, read: pH 7-TFE: phosphate buffer 10 mM/TFE (1:1).
Where [9] appears, read: from PGI values at 0.02-200 µM, three-parameter logistic model.

As for `CSCC[C@H](NC(=O)[C@H](Cc1c[nH]c2ccccc12)NC(=O)[C@H](CCCNC(=N)N)NC(=O)CCNC(C)=O)C(=O)N[C@@H](CC(C)C)C(=O)N[C@H](C(=O)N[C@@H](Cc1ccc(O)cc1)C(=O)N[C@@H](CCCNC(=N)N)C(=O)N[C@@H](CCCNC(=N)N)C(N)=O)C(C)C` [Ac-LP20, Ac-βA -R-W-M-L-V-Y-R-R-CONH2] (Ac-[βAla]RWMLVYRR-NH2), in [1] (10 mM phosphate buffer, pH 7), the “Disordered (%)” value is listed as 37%, the “Helixes (%)” value is 5%, the “Sheets (%)” value was determined as 36% and the “Turns (%)” value is recorded as 22%. For the same molecule, in series [1] (MES buffer 10 mM, pH 6), the “Disordered (%)” value came to 33%, the “Helixes (%)” value came to 6%, the “Sheets (%)” value came out at 40% and the “Turns (%)” value turned out to be 21%. In series [1] (TFE (trifluoroethanol)), the “Disordered (%)” value came out at 31%, the “Helixes (%)” value is given as 19%, the “Sheets (%)” value is on record as 27% and the “Turns (%)” value came out at 23%. For the same molecule, in series [1] (acetate buffer 10 mM, pH 5), the “Disordered (%)” value is listed as 36%, the “Helixes (%)” value is reported as 7%, the “Sheets (%)” value turned out to be 35% and the “Turns (%)” value is listed as 22%. Further, in [1] (setting [8]), the “Disordered (%)” value is 29%, the “Helixes (%)” value is given as 18%, the “Sheets (%)” value was determined as 29% and the “Turns (%)” value was 24%. In addition, the “PPI (%) mycelium” value with P. infestans [2] (Ala-scan of Ac-LP20 and CP20-Met-Ala, P. infestans mycelium in vitro) came to 78.80 ± 4.07%. Also, in the series on pronase [3], the “time of total proteolysis of the peptide” value worked out at 10 min and the stability against proteolysis entry was “Low stability”. In [4], the isoelectric point stood at 12.4 pH, the net charge entry was “+3” and the solubility in water result is reported as “good solubility in water”.
Take `CC(=O)NCCC(=O)NCC(=O)N[C@@H](CCCNC(=N)N)C(=O)N[C@@H](CC(C)C)C(=O)N[C@@H](CCCNC(=N)N)C(=O)N[C@@H](Cc1c[nH]c2ccccc12)C(=O)N[C@@H](CC(C)C)C(=O)N[C@@H](CCCNC(=N)N)C(=O)N[C@H](C(N)=O)C(C)C` [Ac-LP32, Ac-βA -G-R-L-R-W-L-R-V-CONH2] (Ac-[βAla]GRLRWLRV-NH2): in [1] (10 mM phosphate buffer, pH 7), the “Disordered (%)” value is on record as 44%, the “Helixes (%)” value stood at 5%, the “Sheets (%)” value amounted to 33% and the “Turns (%)” value was 18%. In series [1] (TFE (trifluoroethanol)), the “Disordered (%)” value was found to be 51%, the “Helixes (%)” value stood at 5%, the “Sheets (%)” value is 30% and the “Turns (%)” value worked out at 14%. Besides, in series [1] (setting [8]), the “Disordered (%)” value is recorded as 47%, the “Helixes (%)” value was 5%, the “Sheets (%)” value was found to be 30% and the “Turns (%)” value was 18%. Besides, the “PPI (%) micelio” value in the series with P. infestans [2] (Ala-scan of Ac-LP32, P. infestans mycelium in vitro) is 70.23 ± 3.84%. Further, in the series on pronase [3], the “time of total proteolysis of the peptide” value is recorded as 10 min and the stability against proteolysis entry was “low stability”. In series [4], the isoelectric point is reported as 14 pH, the net charge entry is on record as “+3” and the solubility in water result was “good solubility in water”.
The EC99 is the concentration needed for an effect of 99%. With `CSCC[C@@H]1NC(=O)[C@H](Cc2c[nH]c3ccccc23)NC(=O)[C@H](CCCNC(=N)N)NC(=O)CCNC(=O)[C@H](CCCNC(=N)N)NC(=O)[C@H](CCCNC(=N)N)NC(=O)[C@H](Cc2ccc(O)cc2)NC(=O)[C@H](C(C)C)NC(=O)[C@H](CC(C)C)NC1=O` [CP20, βA-R-W-M-L-V-Y-R-R] (cyclo(LVYRR[βAla]RWM)), in the series with Escherichia coli DH5α, the “bacterial growth (OD620)” value was “no alteration in bacterial growth”. Further, the “growth inhibition (OD620)” value with Saccharomyces cerevisiae is “no growth inhibition”. The “Percentage Protection Index for the leaf discs (PPI), reduction in symptoms” value with P. infestans [5] is given as 88.64%. In the series with P. infestans [6] (setting [9]), the EC99 is on record as 68.37 µM. In addition, in the series on P. infestans [6], the “PGI (%) ± dev. std (Liquid medium)” value is on record as 86.19 ± 8.66 (b) %. Also, the “PPI (%) ± Std. Dev.” value in the series with P. infestans [2] (200 µM, P. infestans mycelium, peptidomimetics) was 92.39 ± 2.17 (a) %. The same molecule displayed a PPI with P. infestans [2] (200 µM, P. infestans mycelium) of 89.53%. Besides, the “PPI (%) ± dev. std (Solid medium)” value in the series with P. infestans [2] is listed as 88.99 ± 7.56 (b) %. In the series with pronase [3], the “time after which cleavage was observed in the presence of protease” value is 2 h and the stability against proteolysis entry was “good stability against proteolysis”.
As a reminder, the EC50 is the concentration needed to bring the measured effect to its halfway point. Turning to `CC(C)C[C@@H]1NC(=O)[C@H](CCCNC(=N)N)NC(=O)CNC(=O)CCNC(=O)[C@H](C(C)C)NC(=O)[C@H](CCCNC(=N)N)NC(=O)[C@H](CC(C)C)NC(=O)[C@H](Cc2c[nH]c3ccccc23)NC(=O)[C@H](CCCNC(=N)N)NC1=O` [CP32, βA-G-R-L-R-W-L-R-V] (cyclo(GRLRWLRV[βAla])), the “bacterial growth (OD620)” value in the series with Escherichia coli DH5α is on record as “no alteration in bacterial growth”. The “growth inhibition (OD620)” value in the series with Saccharomyces cerevisiae is reported as “no growth inhibition”. The “Percentage Protection Index for the leaf discs (PPI), reduction in symptoms” value in the series with P. infestans [5] turned out to be 90.03%. Also, in the series with P. infestans [6] (setting [9]), the 50% effective concentration (EC50) worked out at 16 µM and the 99% effect concentration (EC99) was determined as 56.18 µM. The “PGI (%) ± dev. std (Liquid medium)” value in the series with P. infestans [6] is given as 90.61 ± 10.87 (b) %. Further, the PPI in the series with P. infestans [2] (200 µM, P. infestans mycelium) was 87.44%. For the same molecule, the “PPI (%) ± dev. std (Solid medium)” value with P. infestans [2] is listed as 87.93 ± 9.47 (b) %. In the series on pronase [3], the “time of total proteolysis of the peptide” value came out at 30 min and the stability against proteolysis entry was “more stable against proteolysis than its linear analogues”.
For `COCC(=O)N(c1c(C)cccc1C)[C@H](C)C(=O)OC` [Metalaxyl-M], the “P. ultimum (IPP - %)” value in the series on P. ultimum is 100 ± 0 (a) %.
Turning to Ac-[βAla]GRLRWLRV-NH2, the cleaved bond entry in the series with pronase [7] was “Trp-Leu7, 10 minutes later; also recorded: Leu4-Arg5, 10 min; also recorded: Arg5-Trp, 10 min; also recorded: Leu7-Arg8, 10 min; also recorded: Arg8-Val, 10 min”.
Same read-out and setting: in the case of Ac-[βAla]RWMLVYRR-NH2 it was “Met4-Leu, first_seen, t0; also recorded: Arg2-Trp3, 10 min; also recorded: Trp3-Met4, 10 min”; in that of [βAla]GRLRWLRV [CP32], “βAla-Gly, first_seen, After mixing protease with peptide solution; also recorded: Leu7-Arg8, first_seen, After mixing protease with peptide solution; also recorded: Arg8-Val; also recorded: Leu4-Arg5, 10 minutes; also recorded: Arg5-Trp, 10 minutes; also recorded: Trp-Leu7, 10 minutes”.
As to [βAla]GRLRWLRV [LP32], in the series on pronase [7], the cleaved bond entry is given as “Trp-Leu7, first_seen, immediately, after mixing protease with peptide solution; also recorded: Leu4-Arg5, 10 min; also recorded: Arg5-Trp, 10 min; also recorded: Leu7-Arg8, 10 min; also recorded: Arg8-Val, 10 min”.
As for [βAla]RWMLVYRR [CP20], in the series with pronase [7], the cleaved bond result is reported as “Arg8-Arg9, 2 hours; also recorded: Met4-Leu, 2 hours”.
With [βAla]RWMLVYRR [LP20], the cleaved bond result in the series on pronase [7] is listed as “Met4-Leu, first_seen, t0; also recorded: Arg2-Trp3, 10 min; also recorded: Trp3-Met4, 10 min”.
